Columns and labels:
Details in all cases: 48 h
SEM cells [1] = experiment: cell viability relative to DMSO control; higher = less cytotoxic
Method in brief: (§1)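 NOMO1 or SEM cells were plated at 500 cells/well and P12-Ichikawa cells at 1000 cells/well in 1536-well plates (5 μl), after each leukemia line had been adapted for at least four passages in each medium. Pin dosing delivered library compounds in DMSO at 11 threefold concentrations, 47 μM to 0.79 nM. CellTiter-Glo One luminescence was read after 48 h at 37°C. Viability is reported as a per-plate percentage of DMSO wells, with cell-free wells as background.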

NOMO1 [2] = experiment: as above
Method in brief: as §1

P12-Ichikawa [3] = experiment: as above
Method in brief: as §1

SEM cells [4] = experiment: AUC of viability dose-response curve (% viability x log10 dose units); higher = less sensitive
Method in brief: (§2)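 Medium-adapted leukemia cells in 1536-well plates, at 500 or 1000 cells/well, were incubated for 48 h at 37°C with library compounds in DMSO at 11 threefold doses from 47 μM to 0.79 nM. CellTiter-Glo One luminescence normalised per plate to DMSO and cell-free wells was fitted with a four-parameter log-logistic model over log10 doses. Area under the curve was integrated from this fit by trapezoidal rule, with curves beyond full viability scaled and failed quality-control curves removed.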

NOMO1 [5] = experiment: as above
Method in brief: as §2

P12-Ichikawa [6] = experiment: as above
Method in brief: as §2

NC(=O)c1c(OCc2c(F)cc(Br)cc2F)nsc1NC(=O)NCCCCN1CCCC1
cell viability [%]
Details	NOMO1 [2]	P12-Ichikawa [3]	SEM cells [1]
HPLM + 10% dialyzed FBS, 0.000781 µM	89.9	107	116
HPLM + 10% dialyzed FBS, 0.00234 µM	108	112	122
HPLM + 10% dialyzed FBS, 0.00702 µM	91.4	103	111
HPLM + 10% dialyzed FBS, 0.0211 µM	82.3	104	106
HPLM + 10% dialyzed FBS, 0.0632 µM	76.8	99.9	108
HPLM + 10% dialyzed FBS, 0.19 µM	87.6	102	131
HPLM + 10% dialyzed FBS, 0.569 µM	107	98.8	118
HPLM + 10% dialyzed FBS, 1.71 µM	79.8	100	111
HPLM + 10% dialyzed FBS, 5.12 µM	67.6	89.5	84.4
HPLM + 10% dialyzed FBS, 15.4 µM	18.5	45.2	39.2
HPLM + 10% dialyzed FBS, 46.1 µM	21.5	43.8	35.9
RPMI 5 mM glucose + 10% FBS, 0.000781 µM	123	–	91.6
RPMI 5 mM glucose + 10% FBS, 0.00234 µM	116	–	100
RPMI 5 mM glucose + 10% FBS, 0.00702 µM	115	–	78.7
RPMI 5 mM glucose + 10% FBS, 0.0211 µM	116	–	83.2
RPMI 5 mM glucose + 10% FBS, 0.0632 µM	112	–	90.5
RPMI 5 mM glucose + 10% FBS, 0.19 µM	105	–	110
RPMI 5 mM glucose + 10% FBS, 0.569 µM	111	–	109
RPMI 5 mM glucose + 10% FBS, 1.71 µM	103	–	103
RPMI 5 mM glucose + 10% FBS, 5.12 µM	103	–	75.4
RPMI 5 mM glucose + 10% FBS, 15.4 µM	66.6	–	22.4
RPMI 5 mM glucose + 10% FBS, 46.1 µM	85.7	–	27.9
RPMI 5 mM glucose + 10% dialyzed FBS, 0.000781 µM	–	123	97
RPMI 5 mM glucose + 10% dialyzed FBS, 0.00234 µM	–	126	130
RPMI 5 mM glucose + 10% dialyzed FBS, 0.00702 µM	–	116	97.6
RPMI 5 mM glucose + 10% dialyzed FBS, 0.0211 µM	–	111	116
RPMI 5 mM glucose + 10% dialyzed FBS, 0.0632 µM	–	108	97
RPMI 5 mM glucose + 10% dialyzed FBS, 0.19 µM	–	111	129
RPMI 5 mM glucose + 10% dialyzed FBS, 0.569 µM	–	111	123
RPMI 5 mM glucose + 10% dialyzed FBS, 1.71 µM	–	96.7	114
RPMI 5 mM glucose + 10% dialyzed FBS, 5.12 µM	–	99.6	107
RPMI 5 mM glucose + 10% dialyzed FBS, 15.4 µM	–	46.9	37.1
RPMI 5 mM glucose + 10% dialyzed FBS, 46.1 µM	–	68.1	63.7

AUC of viability dose-response curve
Details	NOMO1 [5]	P12-Ichikawa [6]	SEM cells [4]
HPLM + 10% dialyzed FBS	370	430	415
RPMI 5 mM glucose + 10% FBS	450	445	397
RPMI 5 mM glucose + 10% dialyzed FBS	421	436	435

— the supplement of paper PMC11451515
